Results from patent US20040071762A1, “Diagnostic test for schizophrenia, using niacin” (Scotia Holdings PLC, priority 1996, published 2004).
Where two headings read alike, the source gives them in different places.

Tests used:
[1] = system: skin; assay: Topical niacin skin patch test, redness (flushing) scored 0-3; assay type: in vivo, human; details: for Percentage responding with absent [0] reddening of the skin / Percentage responding with marked [3] reddening of the skin / Percentage responding with mild [1] reddening of the skin / Percentage responding with moderate [2] reddening of the skin: 5 minutes
Source text: The test involves the topical application of niacin solutions, preferably in a carrier such as gauze, cotton, wax or appropriate fibre or absorbent material, to the skin of any part of the body, but conveniently the forearm or upper arm. A range of solutions may be used from 0.00001M to 1 molar. A single concentration may be chosen and used but desirably use is made of a range of steps varying from two to twenty. We have found it convenient is to use a range of four solutions of 0.1, 0.01, 0.001 and 0.0001M, e.g. 0.05 ml of each, but other concentrations within the range and other numbers of steps can be used as found appropriate, both in diagnosis and in monitoring as discussed above. […] The wells or depressions may be sealed by another plastic or other strip which isolates them from the atmosphere and which can be removed immediately prior to testing. The strip with the open wells can then be applied to the skin surface with light pressure and removed after an appropriate time which may be e.g. 0.5 minutes up to 10 or 15 minutes but preferably 3 to 6 minutes.
Both of these effects are due to vasodilatation of the small blood vessels of the skin. The redness may be scored in relation to the adjacent unaffected skin on an appropriate scale which can be either “present” or “absent”, or can be semi-quantitative, such as mild, moderate or marked, or can be made fully quantitative by use of a spectrophotometer or other appropriate instrument e.g. a blood flow meter. The oedema can likewise be scored as present or absent or can be scored semi-quantitatively or quantitatively.
We have also used a scoring system in which the degree of redness under each patch was scored as 0=no change, 1=mild redness, 2=moderate redness and 3=marked redness. When the test is used commercially, sample colour charts may show how the test can be used with individuals of varying skin colour. With particularly dark-skinned individuals, oedema or a measurement of skin surface temperature or heat loss may be required to give the best results.

[2] = system: skin; details: 100-300 mg given orally, cited from earlier work
[3] = normal controls (n=22), topical niacin 0.000. M
[4] = normal controls (n=22), topical niacin 0.001 M
[5] = normal controls (n=22), topical niacin 0.01 M
[6] = normal controls (n=22), topical niacin 0.1 M
[7] = schizophrenics (n=38), topical niacin 0.000. M
[8] = schizophrenics (n=38), topical niacin 0.001 M
[9] = schizophrenics (n=38), topical niacin 0.01 M
[10] = schizophrenics (n=38), topical niacin 0.1 M

## O=C(O)c1cccnc1 [Niacin, nicotinic acid]
[1]; depressives, expected by analogy with oral niacin
  Response to topical niacin test in depressives: the same as for normal individuals
[1]; [3]
  Percentage responding with absent [0] reddening of the skin: 35.3%
  Percentage responding with marked [3] reddening of the skin: 17.6%
  Percentage responding with mild [1] reddening of the skin: 29.4%
  Percentage responding with moderate [2] reddening of the skin: 17.6%
[1]; [4]
  Percentage responding with absent [0] reddening of the skin: 31.8%
  Percentage responding with marked [3] reddening of the skin: 18.2%
  Percentage responding with mild [1] reddening of the skin: 9.1%
  Percentage responding with moderate [2] reddening of the skin: 40.9%
[1]; [5]
  Percentage responding with absent [0] reddening of the skin: 9.1%
  Percentage responding with marked [3] reddening of the skin: 31.8%
  Percentage responding with mild [1] reddening of the skin: 13.6%
  Percentage responding with moderate [2] reddening of the skin: 45.5%
[1]; [6]
  Percentage responding with absent [0] reddening of the skin: 4.5%
  Percentage responding with marked [3] reddening of the skin: 59.1%
  Percentage responding with mild [1] reddening of the skin: 9.1%
  Percentage responding with moderate [2] reddening of the skin: 27.3%
[1]; [7]
  Percentage responding with absent [0] reddening of the skin: 88.2%
  Percentage responding with marked [3] reddening of the skin: 0%
  Percentage responding with mild [1] reddening of the skin: 8.8%
  Percentage responding with moderate [2] reddening of the skin: 2.9%
[1]; [8]
  Percentage responding with absent [0] reddening of the skin: 67.6%
  Percentage responding with marked [3] reddening of the skin: 0%
  Percentage responding with mild [1] reddening of the skin: 29.4%
  Percentage responding with moderate [2] reddening of the skin: 2.9%
[1]; [9]
  Percentage responding with absent [0] reddening of the skin: 41.2%
  Percentage responding with marked [3] reddening of the skin: 0%
  Percentage responding with mild [1] reddening of the skin: 41.2%
  Percentage responding with moderate [2] reddening of the skin: 17.6%
[1]; [10]
  Percentage responding with absent [0] reddening of the skin: 13.5%
  Percentage responding with marked [3] reddening of the skin: 5.4%
  Percentage responding with mild [1] reddening of the skin: 37.8%
  Percentage responding with moderate [2] reddening of the skin: 43.2%
[2]; a substantial proportion of schizophrenics
  Flushing response to oral niacin: fail to flush
[2]; most normal individuals
  Flushing response to oral niacin: flush markedly

## NC(=O)c1cccnc1 [Nicotinamide]
[1]; form passing the skin, suitability for the topical test
  Flushing reaction in normal individuals: does not elicit the reaction
